Results reported in US20240101510A1, “APYRASE INHIBITORS” (Texas Crop Science, priority 2022, published 2024).
Each block holds one molecule with its values, some of them ahead of it.

What was measured:
[1] = system: Botrytis cinerea on tomatoes; assay: Greenhouse crop test in combination with commercial fungicide; assay type: in vivo; conditions: for control of Botrytis by Amistar in combination with test compound: Amistar 0.03 L/ha; for activity against Botrytis of Balaya in combination with test compound: Balaya 0.0015 L/ha, compared to Balaya alone; for control of Botrytis by Proline in combination with test compound: Proline 0.00075 L/ha, compared to Proline alone
Experimental: (§1) Method 3: Greenhouse Crop Tests
(§2) In this method, exemplary compounds were evaluated for their ability to control Zymoseptoria tritici on wheat, Botrytis cinerea on tomatoes, Asian Soya Rust (Phakopsora pachyrhizi) on soybean, and Brown Rust (Puccinia recondita) on wheat, in a controlled greenhouse environment in combination with one of four fungicides, Amistar, Imtrex, Proline or Balaya. In these studies, soybean cultivar Siverka, tomato (Money maker) and wheat plants (JB Diego) were used. Seeds were sown in 9 cm diameter pots to a depth of 1 to 2 cm using Petersfield potting compost (75% medium grade peat, 12% screened sterilized loam, 3% medium grade vermiculite, 10% grit (5 mm screened, lime free), 1.5 kg PG mix per m3, lime to pH5.5-6.0 and wetting agent (Vitax Ultrawet 200 ml per m3) and germinated/grown at 23° C. under a 16 h day/8 h night light regime. Plants were treated two to three weeks after sowing when they were at the BBCH 11 growth stage (first pair of true leaves (unifoliate) unfolded. A track sprayer was used to treat the plants with the mixture of commercial fungicide and test compound using a water volume of 200 L/ha. Plants were inoculated with the appropriate fungi (pathogen) 24 hours after treatment. Fungal pathogens used were Botrytis cinerea (Grey mold on tomato plants), Zymoseptoria tritici (Septoria leaf blotch on wheat plants), Puccinia triticina (Brown rust on wheat plants) and Phakopsora pachyrhyzi (Asian soy rust on soybean plants). Four replicates were used for each combination of fungicide, pathogen and test compound. Each plant was evaluated once the disease symptoms were fully expressed between seven to twenty days (depending on the pathogen) for % control of the disease. Appropriate controls were used for all experiments, including an ‘inoculation check’ wherein plants were inoculated with their specific pathogen to assess disease levels. Also, each commercial fungicide was tested on its own as a part of each treatment, this being benchmark against which the experimental compounds were evaluated. […] That is, the present compounds, although not fungicidal by themselves, enhance the activity of fungicides.
(§3) In these studies the fungicide was applied at the following rates

[2] = system: apyrase; assay: In vitro apyrase assay (screen for apyrase inhibitors, phosphate release read at 630 nm); assay type: biochemical; conditions: inhibitor conc at 1 mM; 1 hr at room temperature; rounded average of two assay results
Experimental: Method 1: In Vitro Apyrase Assay: Apyrase inhibitors useful as enhancers of pesticidal activity are assessed using an in vitro assay. The method of Windsor, Bio Techniques 33:1024-1030 (November 2002) was used as follows: Screen for Apyrase Inhibitors - 96 well plates were used for the assay: (Greiner bio-one: REF-655901-96 well, PS, F-bottom, Clear, Non-binding) Buffers: • Reaction Buffer: 60 mM Hepes; 3 mM MgCl2, 3 mM CaCl2 and 3 mM ATP (pH 6.5) • Development Buffer A: 2% aqueous ammonium molybdate • Development Buffer B: 11% ascorbic acid in 37.5% TCA in water • Stop buffer C: 2% trisodium citrate in 2% acetic acid solution in water • Add 100 μl of reaction buffer to each well. • Add […] (control) or inhibitor/compound or compounds such as […] or orthovanadate to each well. […] A blank cell indicates either <10% observed inhibition or a large difference between repetitions. In certain examples, the lack of observed inhibition is due to a lack of solubility of the compound under assay conditions, rather than a lack of apyrase inhibitory activity. Roux compound 15 inhibited apyrase in this assay at about 60%.

[3] = system: Microdochium nivale; assay: In vitro assessment of combination activity with fungicides on agar; assay type: cell-based; conditions: fungicide at a rate just below that giving any control; visual assessment of % control;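 note: scored as inactive or active or highly active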
Experimental: (§4) Method 2: In Vitro Assessment of Combination Activity
(§5) Selected compounds were assessed in combination with fungicides against a range of commercially important plant pathogenic fungi.
(§6) The test was conducted as follows. A fungicide was applied to a fungal plant pathogen at a rate slightly below that at which it gave any control, in combination with a suitable dose of the test compound. The test compound was recorded as active if control of the pathogen was observed.
(§7) In more detail, the test was conducted as follows. For each combination of fungicide, pathogen and test compound, the following wells were used. Well 1 contained a fungal pathogen growing on agar, and a fungicide at a rate just below that at which it gave any control of the pathogen. Well 2 was the same as Well 1, except that the test compound was also added at Rate 1. Well 3 was the same as Well 2, except that the test compound was added at Rate 2, where Rate 2 was higher than Rate 1. Finally, as a benchmark, Well 4 was the same as Well 1, except that it contained the fungicide at a higher rate, at which it gave partial control of the pathogen. Each of the Wells 1 to 4 were run in duplicate, giving a total of 8 wells for each combination of fungicide, pathogen and test compound. For each well, after a suitable period of incubation, a visual assessment of the % control of the pathogen by the fungicide was made.
(§8) The following fungicides were used in this assay: azoxystrobin, fluxapyroxad, and desthio prothioconazole. The following fungal pathogens were used in this assay. First, a strain of Zymoseptoria tritici with a reduced susceptibility to strobilurin fungicides; second a strain of Zymoseptoria tritici with a reduced susceptibility to SDHI fungicides (i.e., those that inhibit succinate dehydrogenase); and third, Microdochium nivale.

[4] = system: Zymoseptoria tritici with a reduced susceptibility to SDHI fungicides; assay: as above; assay type: cell-based; conditions: fungicide at a rate just below that giving any control; visual assessment of % control;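 note: scored as inactive or active or highly active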
Experimental: as §4, §5, §6, §7, §8

[5] = system: Zymoseptoria tritici with a reduced susceptibility to strobilurin fungicides; assay: as above; assay type: cell-based; conditions: fungicide at a rate just below that giving any control; visual assessment of % control;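 note: scored as inactive or active or highly active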
Experimental: as §4, §5, §6, §7, §8

[6] = system: Zymoseptoria tritici on wheat; assay: Greenhouse crop test in combination with commercial fungicide; assay type: in vivo; conditions: test compound at 20 ppm
Experimental: as §1, §2, §3

[7] = test compound rate not printed (same rate for both, the higher rate), compared to Amistar alone

% Inhibition of Apyrase [2]: 44%
Structure (SMILES): C/C(=N\NC(=O)c1cccc(C)c1)c1ccc(C)c(C)c1 [I-217, (E)-N′-(1-(3,4-dimethylphenyl)ethylidene)-3-methylbenzohydrazide]

% Inhibition of Apyrase [2]: 42%
Structure (SMILES): CCc1cccc(C(=O)N/N=C(\C)c2ccc3ccccc3c2)c1 [I-218, (E)-3-ethyl-N′-(1-(naphthalen-2-yl)ethylidene)benzohydrazide]

% Inhibition of Apyrase [2]: 40%
Structure (SMILES): C/C(=N\NC(=O)c1ccnc(C)n1)c1ccc2ccccc2c1 [I-219, (E)-2-methyl-N′-(1-(naphthalen-2-yl)ethylidene)pyrimidine-4-carbohydrazide]

% Inhibition of Apyrase [2]: 25%
Structure (SMILES): C/C(=N\NC(=O)c1cccc(CO)c1)c1ccc2ccccc2c1 [I-220, (E)-3-(hydroxymethyl)-N′-(1-(naphthalen-2-yl)ethylidene)benzohydrazide]

% Inhibition of Apyrase [2]: 23%
Structure (SMILES): C/C(=N\NC(=O)c1cccc(S(=O)(=O)N(C)C)c1)c1ccc2ccccc2c1 [I-221, (E)-N,N-dimethyl-3-(2-(1-(naphthalen-2-yl)ethylidene)hydrazine-1-carbonyl)benzenesulfonamide]

% Inhibition of Apyrase [2]: 12%
Structure (SMILES): CNS(=O)(=O)c1cccc(C(=O)N/N=C(\C)c2ccc3ccccc3c2)c1 [I-222, (E)-N-methyl-3-(2-(1-(naphthalen-2-yl)ethylidene)hydrazine-1-carbonyl)benzenesulfonamide]

% Inhibition of Apyrase [2]: 10%
Structure (SMILES): C/C(=N\NC(=O)c1cc(C)ncn1)c1ccc2ccccc2c1 [I-223, (E)-6-methyl-N′-(1-(naphthalen-2-yl)ethylidene)pyrimidine-4-carbohydrazide]
control of Zymoseptoria tritici by Balaya in combination with test compound ([6]; Balaya 0.0015 L/ha, compared to Balaya alone or with Roux Compound 15 at 30 ppm): notable superior results
control of Zymoseptoria tritici by Proline in combination with test compound ([6]; Proline 0.0075 L/ha, compared to Proline alone and with Roux Compound 15): notable superior results
activity in combination with fluxapyroxad [3]: significant activity
activity in combination with desthio prothioconazole [5]: significant activity

% Inhibition of Apyrase [2]: 10%
Structure (SMILES): C/C(=N\NC(=O)c1cccc(C)c1)c1ccc2c(c1)CCC2 [I-224, (E)-N′-(1-(2,3-dihydro-1H-inden-5-yl)ethylidene)-3-methylbenzohydrazide]

% Inhibition of Apyrase [2]: 6%
Structure (SMILES): C/C(=N\NC(=O)c1nccc(C)n1)c1ccc2ccccc2c1 [I-225, (E)-4-methyl-N′-(1-(naphthalen-2-yl)ethylidene)pyrimidine-2-carbohydrazide]

% Inhibition of Apyrase [2]: 1%
Structure (SMILES): C/C(=N\NC(=O)c1cncc(C)c1)c1ccc2ccccc2c1 [I-226, (E)-5-methyl-N′-(1-(naphthalen-2-yl)ethylidene)nicotinohydrazide]

% Inhibition of Apyrase [2]: about 60%
Structure (SMILES): C/C(=N\NC(=O)c1cccc(C)c1)c1ccc2ccccc2c1 [Roux compound 15, reference compound]
control of Botrytis by Amistar in combination with test compound [1, 7]: substantially higher than with Amistar alone
activity against Botrytis of Balaya in combination with test compound ([1]; test compound at 15 ppm): no more active against Botrytis than Balaya alone
control of Botrytis by Proline in combination with test compound ([1]; test compound at 30 ppm): notably higher than with Proline alone
activity in combination with azoxystrobin [3]: no activity
activity in combination with desthio prothioconazole [3]: no activity
activity in combination with fluxapyroxad [3]: no activity
activity in combination with azoxystrobin [4]: no activity
activity in combination with desthio prothioconazole [4]: no activity
activity in combination with fluxapyroxad [4]: no activity
activity in combination with azoxystrobin [5]: no activity
activity in combination with desthio prothioconazole [5]: no activity
activity in combination with fluxapyroxad [5]: no activity

More lines, now with the values behind:

Structure (SMILES): C/C(=N\NC(=O)c1cccc(F)c1)c1ccccn1 [I-4, (E)-3-fluoro-N′-(1-(pyridin-2-yl)ethylidene)benzohydrazide]
control of Botrytis by Amistar in combination with test compound ([1]; test compound at 15 ppm, compared to Amistar with Roux Compound 15 at 15 ppm): much higher levels of control
control of Botrytis by Amistar in combination with test compound [1, 7]: substantially higher than with Amistar alone
activity against Botrytis of Balaya in combination with test compound ([1]; test compound at 15 ppm): significantly more active
control of Botrytis by Imtrex in combination with test compound ([1]; Imtrex 0.005 L/ha, test compound at 30 ppm, compared to Imtrex alone or with Roux Compound 15 at 30 ppm): far superior control
control of Botrytis by Proline in combination with test compound ([1]; test compound at 30 ppm): notably higher than with Proline alone
% Inhibition of Apyrase [2]: 24%
activity in combination with azoxystrobin [3]: significant activity
activity in combination with desthio prothioconazole [3]: significant activity
activity in combination with fluxapyroxad [3]: significant activity
activity in combination with azoxystrobin [4]: significant activity
activity in combination with desthio prothioconazole [4]: significant activity
activity in combination with fluxapyroxad [4]: significant activity
activity in combination with azoxystrobin [5]: significant activity
activity in combination with desthio prothioconazole [5]: significant activity
activity in combination with fluxapyroxad [5]: significant activity

Structure (SMILES): CCCC/C=N/NC(=O)c1ccccc1 [I-9, (E)-N′-pentylidenebenzohydrazide]
% Inhibition of Apyrase [2]: 19%
activity in combination with azoxystrobin [3]: significant activity
activity in combination with desthio prothioconazole [4]: significant activity

Structure (SMILES): C/C(=N\NC(=O)c1cccc(C(F)(F)F)c1)c1ccc2ccccc2c1 [I-210, (E)-N′-(1-(naphthalen-2-yl)ethylidene)-3-(trifluoromethyl)benzohydrazide]
% Inhibition of Apyrase [2]: 63%

Structure (SMILES): C/C(=N\NC(=O)c1cccc(C)n1)c1ccc2ccccc2c1 [I-211, (E)-6-methyl-N′-(1-(naphthalen-2-yl)ethylidene)picolinohydrazide]
% Inhibition of Apyrase [2]: 56%

Structure (SMILES): C/C(=N\NC(=O)c1ccc(C)s1)c1ccc2ccccc2c1 [I-212, (E)-5-methyl-N′-(1-(naphthalen-2-yl)ethylidene)thiophene-2-carbohydrazide]
% Inhibition of Apyrase [2]: 56%

Structure (SMILES): C/C(=N\NC(=O)c1ccccc1)c1ccc2ccccc2c1 [I-213, (E)-N′-(1-(naphthalen-2-yl)ethylidene)benzohydrazide]
% Inhibition of Apyrase [2]: 55%

Structure (SMILES): C/C(=N\NC(=O)c1cccc(C)c1)c1cnc2ccccc2c1 [I-215, (E)-3-methyl-N′-(1-(quinolin-3-yl)ethylidene)benzohydrazide]
% Inhibition of Apyrase [2]: 46%
activity in combination with fluxapyroxad [3]: significant activity

Structure (SMILES): C/C(=N\NC(=O)c1csc(C)c1)c1ccc2ccccc2c1 [I-216, (E)-5-methyl-N′-(1-(naphthalen-2-yl)ethylidene)thiophene-3-carbohydrazidee]
% Inhibition of Apyrase [2]: 44%
